From patent US12590062B2, “PD-1/PD-L1 inhibitors” (Gilead Sciences, Inc., priority 2017, dated 2026)

What was measured:
PD-1/PD-L1 interaction = molecular target: T1, PD-1/PD-L1 interaction (Homo sapiens, UniProt Q9NZQ7); test: PD-1/PD-L1 NFAT reporter co-culture assay; assay type: cell-based; settings: Jurkat PD-1 NFAT-luciferase cells co-cultured with aAPC-PD-L1 CHO cells, 6 hrs at 37° C.; read-out: EC50 NFAT Luciferase
T1 construct: expressed in transfected cells; host or cells: CHO cells (aAPC-PD-L1) co-cultured with Jurkat cells overexpressing PD-1 and an NFAT-luciferase reporter
Summary of the method: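 Jurkat cells overexpressing PD-1 with NFAT-driven luciferase were mixed with compound in RPMI 1640/2% FBS and seeded onto overnight-plated CHO aAPC-PD-L1 cells expressing surface anti-CD3 and PD-L1. Co-culture ran 6 h at 37 °C; luminescence read with ONE-Glo; EC50 from four-parameter fit.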

PD-L1 = molecular target: T2, PD-L1 (Homo sapiens, UniProt Q9NZQ7); test: PD-L1/PD-L1 dimerization biochemical protein-protein interaction assay (ALPHA); assay type: binding; settings: compound-induced PD-L1 dimerization, head prints '1 nM' (0.5 nM His-tagged PD-L1 and 0.5 nM FLAG-tagged PD-L1), read-out: AC50 PDL1 Dimer Alpha 1 nM
T2 construct: determine if they can specifically dimerize the extracellular domains of PD-L1
Method: PD-L1/PD-L1 Dimerization Biochemical Protein-Protein Interaction Assay:
Compounds were tested in biochemical protein-protein interaction assays to determine if they can specifically dimerize the extracellular domains of PD-L1. Dimerization of the proteins (His-tagged PD-L1 and FLAG-tagged PD-L1) is measured using a bead based Amplified Luminescent Proximity Homogeneous Assay (ALPHA) platform. […] Assays are performed in 25 mM Hepes (pH 7.4), 150 mM NaCl, 3.4 mM EDTA, 0.005% Tween 20, and 0.01% BSA. Final protein concentration in the assays were 0.5 nM (His tagged PD-L) and 0.5 nM (FLAG tagged PD-L1). After an assay reaction time of 2 hours at 25° C., 20 μg/mL (final assay concentration) ALPHA assay acceptor beads (anti-His coated) were added and incubated for 60 minutes at 25° C. Binding was measured following a final 60 minute incubation with 40 μg/mL (final assay concentration) ALPHA assay donor beads (anti-FLAG coated). AC50 values were calculated from the fit of the dose-response curves to a four-parameter equation (Table 3).

PD-1/PD-L1 = PD-1/PD-L1 (Homo sapiens, UniProt Q9NZQ7); test: PD-1/PD-L1 biochemical protein-protein interaction assay (ALPHA); assay type: binding; settings: 0.3 nM His tagged PD-L1, 2.5 nM biotinylated Fc-PD-1, 60 minutes at 25° C., read-out: IC50 PD-L1-PD-1 Alpha IC50-mono PD-L1-fcP-D1
Summary of the method: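 Extracellular-domain binding of His-tagged PD-L1 (0.3 nM final) to biotinylated Fc-PD-1 (2.5 nM final) was measured by ALPHA in 25 mM Hepes pH 7.4, 150 mM NaCl, 3.4 mM EDTA, 0.005% Tween 20, 0.01% BSA. After 60 min at 25° C, anti-His acceptor and streptavidin donor beads were added; IC50 from four-parameter fits.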

PD-1/PD-L1, sequence (Q9NZQ7 19-238 limits assumed): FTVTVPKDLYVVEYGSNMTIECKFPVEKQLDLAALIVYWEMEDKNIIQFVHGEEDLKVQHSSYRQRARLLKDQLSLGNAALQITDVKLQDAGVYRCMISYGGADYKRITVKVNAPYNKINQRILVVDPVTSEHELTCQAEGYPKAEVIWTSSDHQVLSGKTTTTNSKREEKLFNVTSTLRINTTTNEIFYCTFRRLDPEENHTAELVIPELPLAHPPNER
T2 sequence (Q9NZQ7 19-238 limits assumed): as above
T2 sequence (Q9NZQ7 19-238 limits assumed): as above
T1 sequence (Q9NZQ7 19-290): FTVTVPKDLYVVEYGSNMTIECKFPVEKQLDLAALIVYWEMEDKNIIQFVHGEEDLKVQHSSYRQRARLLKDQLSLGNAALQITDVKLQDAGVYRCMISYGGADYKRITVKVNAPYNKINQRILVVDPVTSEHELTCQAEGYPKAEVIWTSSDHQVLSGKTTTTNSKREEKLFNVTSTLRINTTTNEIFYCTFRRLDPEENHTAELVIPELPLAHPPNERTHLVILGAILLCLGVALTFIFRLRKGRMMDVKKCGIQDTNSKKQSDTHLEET

EC50 (PD-1/PD-L1 interaction) [nM] | AC50 (PD-L1) [nM] | IC50 (PD-1/PD-L1) [nM] | SMILES
338 | 370 | 0.4 | Cc1c(COc2cc(OCc3cncc(C#N)c3)c(CNC[C@@H](O)CC(=O)O)cc2Cl)cccc1-c1cccc(COc2cc(OCc3cncc(C#N)c3)c(CNC[C@@H](O)CC(=O)O)cc2Cl)c1C [Example 66, (3S,3′S)-4,4′-((((((2,2′-dimethyl-[1,1′-biphenyl]-3,3′-diyl)bis(methylene))bis(oxy))bis(5-chloro-2-((5-cyanopyridin-3-yl)methoxy)-4,1-phenylene))bis(methylene))bis(azanediyl))bis(3-hydroxybutanoic acid)]
1450 | 195 | 0.6 | Cc1c(COc2nc(OCc3cccnc3)c(CNC[C@@H](O)CC(=O)O)cc2Br)cccc1-c1cccc(COc2nc(OCc3cccnc3)c(CNC[C@@H](O)CC(=O)O)cc2Br)c1C [Example 137, (3S,3′S)-4,4′-((((((2,2′-dimethyl-[1,1′-biphenyl]-3,3′-diyl)bis(methylene))bis(oxy))bis(5-bromo-2-(pyridin-3-ylmethoxy)pyridine-6,3-diyl))bis(methylene))bis(azanediyl))bis(3-hydroxybutanoic acid)]
70 | ≥ 10000 | 0.075 | CC(C)(NCc1cc(Cl)c(O[C@H]2CCc3c(-c4cccc(-c5ccc(S(N)(=O)=O)cc5)c4Cl)cccc32)nc1OCc1cncc(C#N)c1)C(=O)O [Example 289, (S)-2-(((5-chloro-6-((4-(2-chloro-4′-sulfamoyl-[1,1′-biphenyl]-3-yl)-2,3-dihydro-1H-inden-1-yl)oxy)-2-((5-cyanopyridin-3-yl)methoxy)pyridin-3-yl)methyl)amino)-2-methylpropanoic acid]
311 | 25.1 | 0.068 | CN1CCCC1c1ccc(-c2cccc(-c3cccc4c3CC[C@@H]4Oc3nc(OCc4cncc(C#N)c4)c(CN[C@@](C)(CO)C(=O)O)cc3Cl)c2Cl)cc1 (stereo partly drawn) [Example 290, (2S)-2-(((5-chloro-6-(((1S)-4-(2-chloro-4′-(1-methylpyrrolidin-2-yl)-[1,1′-biphenyl]-3-yl)-2,3-dihydro-1H-inden-1-yl)oxy)-2-((5-cyanopyridin-3-yl)methoxy)pyridin-3-yl)methyl)amino)-3-hydroxy-2-methylpropanoic acid]
46 | 27.5 | 0.175 | N#Cc1cncc(COc2nc(O[C@H]3CCc4c(-c5cccc(-c6ccc(OCCNCCO)cc6)c5Cl)cccc43)c(Cl)cc2CNC[C@@H](O)CC(=O)O)c1 [Example 291, (S)-4-(((5-chloro-6-(((S)-4-(2-chloro-4′-(2-((2-hydroxyethyl)amino)ethoxy)-[1,1′-biphenyl]-3-yl)-2,3-dihydro-1H-inden-1-yl)oxy)-2-((5-cyanopyridin-3-yl)methoxy)pyridin-3-yl)methyl)amino)-3-hydroxybutanoic acid]
615 | 230 | 0.509 | Cc1c(COc2cc(OCc3cncc(C#N)c3)c(CN[C@@](C)(CO)C(=O)O)cc2Cl)cccc1-c1cccc(-c2ccc(CC3CCCN3)cc2)c1C (stereo partly drawn) [Example 292, (2S)-2-((5-chloro-2-((5-cyanopyridin-3-yl)methoxy)-4-((2,2′-dimethyl-4″-(pyrrolidin-2-ylmethyl)-[1,1′:3′,1″-terphenyl]-3-yl)methoxy)benzyl)amino)-3-hydroxy-2-methylpropanoic acid]
73 | 125 | 0.226 | Cc1c(COc2cc(OCc3cncc(C#N)c3)c(CNC[C@@H](O)CC(=O)O)cc2Cl)cccc1-c1cccc(-c2ccc3c(CNC[C@@H](O)CC(=O)O)cccc3c2)c1C [Example 293, (S)-4-(((6-(3′-((4-((((S)-3-carboxy-2-hydroxypropyl)amino)methyl)-2-chloro-5-((5-cyanopyridin-3-yl)methoxy)phenoxy)methyl)-2,2′-dimethyl-[1,1′-biphenyl]-3-yl)naphthalen-1-yl)methyl)amino)-3-hydroxybutanoic acid]
714 | 547 | 9.24 | Cc1c(COc2cc(O)c(CNCCCP(=O)(O)O)cc2Cl)cccc1-c1cccc(COc2cc(OCc3cncc(C#N)c3)c(CNCCCP(=O)(O)O)cc2Cl)c1C [Example 294, (3-((5-chloro-4-((3′-((2-chloro-5-((5-cyanopyridin-3-yl)methoxy)-4-(((3-phosphonopropyl)amino)methyl)phenoxy)methyl)-2,2′-dimethyl-[1,1′-biphenyl]-3-y)methoxy)-2-hydroxybenzyl)amino)propyl)phosphonic acid]
279 | 67.6 | 0.312 | C[C@@](CO)(NCc1cc(Cl)c(O[C@H]2CCc3c(-c4cccc5c4CC[C@@H]5Oc4nc(OCc5cncc(C#N)c5)c(CNCCO)cc4Cl)cccc32)nc1OCc1cncc(C#N)c1)C(=O)O [Example 295]
844 | 108 | 0.064 | Cc1c(COc2cc(OCc3cncc(C#N)c3)c(CN[C@@](C)(CO)C(=O)O)cc2Cl)cccc1-c1cccc(-c2cnc3c(Cl)cc(CN[C@@](C)(CO)C(=O)O)cc3c2)c1C [Example 296, (S)-2-(((3-(3′-((4-((((S)-2-carboxy-1-hydroxypropan-2-yl)amino)methyl)-2-chloro-5-((5-cyanopyridin-3-yl)methoxy)phenoxy)methyl)-2,2′-dimethyl-[1,1′-biphenyl]-3-yl)-8-chloroquinolin-6-yl)methyl)amino)-3-hydroxy-2-methylpropanoic acid]
266 | 187 | 0.187 | Cc1c(COc2cc(OCc3cncc(C#N)c3)c(CNC[C@@H](O)CC(=O)O)cc2Cl)cccc1-c1cccc(-c2cnc3c(Cl)cc(CNC[C@@H](O)CC(=O)O)cc3c2)c1C [Example 297, (S)-4-(((3-(3′-((4-((((S)-3-carboxy-2-hydroxypropyl)amino)methyl)-2-chloro-5-((5-cyanopyridin-3-yl)methoxy)phenoxy)methyl)-2,2′-dimethyl-[1,1′-biphenyl]-3-yl)-8-chloroquinolin-6-yl)methyl)amino)-3-hydroxybutanoic acid]
326 | 162 | 0.761 | Cc1c(COc2cc(OCc3cncc(C#N)c3)c(CN[C@@](C)(CO)C(=O)O)cc2Cl)cccc1-c1cccc(-c2ccc3[nH]c([C@@H]4CCCN4)nc3c2)c1C [Example 299, (S)-2-((5-chloro-2-((5-cyanopyridin-3-yl)methoxy)-4-((2,2′-dimethyl-3′-(2-((S)-pyrrolidin-2-yl)-1H-benzo[d]imidazol-5-yl)-[1,1′-biphenyl]-3-yl)methoxy)benzyl)amino)-3-hydroxy-2-methylpropanoic acid]
319 | 289 | – | Cc1c(COc2cc(OCc3cncc(C#N)c3)c(CNC[C@@H](O)CC(=O)O)cc2Cl)cccc1-c1cccc(-c2ccc3sc(CNC[C@@H](O)CC(=O)O)nc3c2)c1C [Example 399, (S)-4-(((5-(3′-((4-((((S)-3-carboxy-2-hydroxypropyl)amino)methyl)-2-chloro-5-((5-cyanopyridin-3-yl)methoxy)phenoxy)methyl)-2,2′-dimethyl-[1,1′-biphenyl]-3-yl)benzo[d]thiazol-2-yl)methyl)amino)-3-hydroxybutanoic acid]
